In one series the test system is DH10B cells. Description: E. coli growth (OD600) in presence of 3 during SORT-M. The series is classed as cell-based. On the procedure: Chemically competent DH10B cells were transformed with two plasmids: pBKwtPylRS necessary for expression of PylRS, and pBAD_wtT4L_MbPylTXXX plasmids that is required for expression of PyltRNAXXX and expresses lysozyme under arabinose control. […] 200 μL aliquots of these cultures were transferred into a 96-well plate and OD600 measured using a Microplate reader, Infinite 200 Pro (TECAN). OD600 was measured for each sample every 10 min with linear 1 mm shaking between the measurements.

A further series relates to PylRS, PyltRNAUUU. In words: Time-dependent proteome incorporation of 3 via SORT-M in E. coli, detected with 4a. The format is cell-based. The conditions noted are these: AAA codon, detection with 4a. On the procedure: Chemically competent DH10B cells were transformed with two plasmids: pBKwtPylRS necessary for expression of PylRS, and pBAD_wtT4LMbPylTUUU plasmid that is required for expression of PyltRNAUUU. pBAD_wtT4L_MbPylTUUU plasmid also contains the gene for expression of T4 lysozyme that is downstream of arabinose-inducible promoter. After transformation, cells were recovered in 1 ml SOB medium for one hour at 37° C. prior to inoculation in 10 ml LB-KT (LB media with 50 μg ml^−1 kanamycin, and 25 μg tetracycline). The culture was incubated overnight (37° C., 250 rpm, 12 h) and subsequently diluted to an OD600˜0.3 in 30 mL LB-KT1/2 (LB media with 25 μg ml^−1 kanamycin, and 12.5 μg ml^−1 tetracycline) supplemented with 3 at different concentrations, 0, 0.1, 0.5 mM. The cultures was incubated (37° C., 250 rpm) for 1 h, when OD600 reached approximately 0.6. 2 ml culture aliquot was collected in a separate tube for each of three cultures. This is the pre-induction culture (lane labelled as 1 in the gel image). Subsequently arabinose was added at a final concentration of 0.2% (v/v) to induce expression of T4 lysozyme and culture aliquots of 2 mL were collected every hour (lanes labelled as 2, 3 and 4 corresponding to 1, 2 and 3 h culture collection after induction). […] Samples were analysed by 4-12% SDS-PAGE and fluorescent images were acquired using Typhoon Trio phosphoimager (GE Life Sciences) […]

As to `CC1=CC1COC(=O)NCCCC[C@H](N)C(=O)O` (stereo partly drawn) [amino acid 3, N^ε-[((2-methylcycloprop-2-en-1-yl)methoxy)carbonyl]-L-lysine], in the series with DH10B cells (0.1 mM), the “toxicity to cells of incorporation via SORT-M” value is on record as “Not Toxic”. For the same molecule, the “effect on cell growth” value in the series on DH10B cells (0.1 or 0.5 mM) is “little or no effect on cell growth”. Also, in the series with PylRS, PyltRNAUUU, the “time to substantial labelling after amino acid addition” value is listed as at most 1 h.
